Columns and labels:
Assay in all cases: relative viability (nuclei count vs DMSO), 5 days (fraction); higher = more cells survive
[1] = compound: Cc1ccc(C(=O)Nc2cccc(C(F)(F)F)c2)cc1Nc1cncc(C(N)=O)c1 [ALW-II-49-7] + CC1(C)CCC(c2ccc(Cl)cc2)=C(CN2CCN(c3ccc(C(=O)NS(=O)(=O)c4ccc(N[C@H](CCN5CCOCC5)CSc5ccccc5)c(S(=O)(=O)C(F)(F)F)c4)cc3)CC2)C1 [Navitoclax] (partner 0.5 µM)
How it was run: (§1)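 Cells from lung cancer lines were seeded into 1536-well plates and, one day later, dosed by pin tool. Treatments were either a single drug or a fixed dose of an anchor drug with five library-drug doses (not always all listed) in √10 steps. After 5 days, nuclei were stained in a one-step fixation (final 0.05% Triton X-100, 1% formaldehyde, 1 ug/ml Hoechst) and counted on 4× images, and relative viability is the treated-to-vehicle nuclei ratio, as the median of duplicate plates.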

[2] = compound: Cc1ccc(C(=O)Nc2cccc(C(F)(F)F)c2)cc1Nc1cncc(C(N)=O)c1 [ALW-II-49-7] + Cc1nc(NC(=O)N2CCC[C@H]2C(N)=O)sc1-c1ccnc(C(C)(C)C(F)(F)F)c1 [Alpelisib] (partner 2 µM)
How it was run: as §1

[3] = compound: Cc1nc(Nc2ncc(C(=O)Nc3c(C)cccc3Cl)s2)cc(N2CCN(CCO)CC2)n1 [Dasatinib] + CCNC(=O)c1noc(-c2cc(C(C)C)c(O)cc2O)c1-c1ccc(CN2CCOCC2)cc1 [Luminespib] (partner 0.01 µM)
How it was run: as §1

[4] = compound: Cc1nc(Nc2ncc(C(=O)Nc3c(C)cccc3Cl)s2)cc(N2CCN(CCO)CC2)n1 [Dasatinib] + O=C(CCCCCCC(=O)Nc1ccccc1)NO [Vorinostat] (partner 1 µM)
How it was run: as §1

| Cell Line | relative viability ([1]; first compound 0.08 µM) | relative viability ([1]; first compound 0.253 µM) | relative viability ([1]; first compound 0.8 µM) | relative viability ([1]; first compound 2.53 µM) | relative viability ([1]; first compound 8 µM) | relative viability ([2]; first compound 0.08 µM) | relative viability ([2]; first compound 0.253 µM) | relative viability ([2]; first compound 0.8 µM) | relative viability ([2]; first compound 2.53 µM) | relative viability ([2]; first compound 8 µM) | relative viability ([3]; first compound 0.005 µM) | relative viability ([3]; first compound 0.01581 µM) | relative viability ([3]; first compound 0.05 µM) | relative viability ([3]; first compound 0.1581 µM) | relative viability ([3]; first compound 0.5 µM) | relative viability ([4]; first compound 0.005 µM) | relative viability ([4]; first compound 0.01581 µM) | relative viability ([4]; first compound 0.05 µM) | relative viability ([4]; first compound 0.1581 µM) | relative viability ([4]; first compound 0.5 µM) |
| --- | --- | --- | --- | --- | --- | --- | --- | --- | --- | --- | --- | --- | --- | --- | --- | --- | --- | --- | --- | --- |
| NCI-H1975 | 1.06 | 1.05 | 0.993 | 0.919 | 0.998 | 0.534 | 0.62 | 0.641 | 0.662 | 0.485 | 0.177 | 0.212 | 0.155 | 0.178 | 0.139 | 0.668 | 0.613 | 0.654 | 0.356 | 0.299 |
| NCI-H2085 | 1.13 | 1.15 | 1.14 | 1.18 | 1.08 | 1.03 | 0.903 | 0.971 | 0.895 | 1.01 | 0.411 | 0.307 | 0.459 | 0.275 | 0.166 | 0.831 | 0.632 | 0.567 | 0.259 | 0.202 |
| NCI-H3122 | 1.06 | 1.06 | 1.07 | 1.09 | 1.05 | 0.824 | 0.651 | 0.865 | 0.873 | 0.981 | 0.0996 | 0.0732 | 0.124 | 0.0691 | 0.0615 | 1.04 | 0.949 | 0.986 | 1.02 | 0.614 |
| NCI-H1651 | 1.09 | 0.969 | 1.13 | 0.921 | 1.06 | 1.01 | 0.832 | 0.746 | 0.919 | 0.835 | 0.742 | 0.723 | 0.868 | 0.677 | 0.63 | 0.546 | 0.433 | 0.481 | 0.465 | 0.359 |

From the supplement of paper PMC10307832
